Test results from article PMC2939729 (Cancer cell, 2010).

Assays:
[1] = target: BMK1 (Homo sapiens, UniProt Q13164); assay: EGF-induced BMK1 activation in HeLa cells; format: cell-based; conditions: 1 μM compound for one hour, EGF 17 min
[2] = system: ERK1/2; assay: EGF-induced ERK1/2 activation in HeLa cells; format: cell-based, human; conditions: 1 μM compound for one hour, EGF 17 min

BMK1, sequence (Q13164 whole entry): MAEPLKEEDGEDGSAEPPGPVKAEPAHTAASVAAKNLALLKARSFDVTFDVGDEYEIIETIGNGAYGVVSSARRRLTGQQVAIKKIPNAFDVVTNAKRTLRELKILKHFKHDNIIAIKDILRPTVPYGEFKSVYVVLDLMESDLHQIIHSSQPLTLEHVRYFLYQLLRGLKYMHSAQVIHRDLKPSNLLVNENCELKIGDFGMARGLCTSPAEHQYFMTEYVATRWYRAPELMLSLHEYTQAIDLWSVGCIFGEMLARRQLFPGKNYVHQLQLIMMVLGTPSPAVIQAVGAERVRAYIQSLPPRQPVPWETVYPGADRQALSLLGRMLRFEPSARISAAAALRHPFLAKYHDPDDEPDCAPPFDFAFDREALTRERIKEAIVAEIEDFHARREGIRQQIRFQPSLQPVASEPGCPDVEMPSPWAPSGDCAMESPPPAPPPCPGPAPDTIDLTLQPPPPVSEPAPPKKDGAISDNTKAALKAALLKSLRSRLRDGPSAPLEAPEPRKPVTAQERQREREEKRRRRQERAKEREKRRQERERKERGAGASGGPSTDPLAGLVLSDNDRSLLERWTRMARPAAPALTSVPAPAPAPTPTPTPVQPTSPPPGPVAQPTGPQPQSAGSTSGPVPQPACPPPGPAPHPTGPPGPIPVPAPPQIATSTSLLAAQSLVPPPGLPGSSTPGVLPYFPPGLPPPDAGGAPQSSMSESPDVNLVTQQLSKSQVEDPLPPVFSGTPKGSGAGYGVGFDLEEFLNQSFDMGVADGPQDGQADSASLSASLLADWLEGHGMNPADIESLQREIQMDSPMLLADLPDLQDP

O=C(NOCC1CC1)c1ccc(F)c(F)c1Nc1ccc(I)cc1Cl [PD184352, reference compound]
Growth factor-induced activation of cellular BMK1 [1]: not BMK1 activation
Growth factor-induced activation of cellular ERK1/2 [2]: only blocked ERK1/2
